Values of other authors, collected in US20210356455A1, “SCREENING AGENTS CAPABLE OF INHIBITING PAIN AND/OR PRURITUS AND METHODS AND COMPOSITIONS FOR TREATING PAIN AND/OR PRURITUS USING SAID AGENTS” (President and Fellows of Harvard College, priority 2020, published 2021).

Tests used:
[1] = biological target: T1, Mrgprd (MAS Related GPR Family Member D) (Homo sapiens, UniProt Q8TDS7); details: cells expressing the receptor
[2] = biological target: T1, Mrgprd (MAS Related GPR Family Member D); details: micromolar doses; cells expressing the receptor
[3] = biological target: T2, Mrgpra3 (Mas-related G-protein coupled receptor member A3) (Mus musculus, UniProt Q91WW3)
T2 sequence (Q91WW3 1-302): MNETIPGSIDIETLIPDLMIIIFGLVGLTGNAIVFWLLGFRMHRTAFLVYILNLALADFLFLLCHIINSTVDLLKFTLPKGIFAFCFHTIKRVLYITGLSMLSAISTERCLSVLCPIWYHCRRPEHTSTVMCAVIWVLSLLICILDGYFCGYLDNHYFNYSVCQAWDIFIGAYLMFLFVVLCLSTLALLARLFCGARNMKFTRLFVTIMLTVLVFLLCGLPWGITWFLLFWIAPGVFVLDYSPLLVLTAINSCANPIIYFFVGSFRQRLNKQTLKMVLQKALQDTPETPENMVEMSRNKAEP

[4] = biological target: Ntsr2 (Neurotensin Receptor 2) (Homo sapiens, UniProt O95665); details: binding and pharmacological studies
Chain of Ntsr2 (Neurotensin Receptor 2) (O95665 whole entry, species assumed): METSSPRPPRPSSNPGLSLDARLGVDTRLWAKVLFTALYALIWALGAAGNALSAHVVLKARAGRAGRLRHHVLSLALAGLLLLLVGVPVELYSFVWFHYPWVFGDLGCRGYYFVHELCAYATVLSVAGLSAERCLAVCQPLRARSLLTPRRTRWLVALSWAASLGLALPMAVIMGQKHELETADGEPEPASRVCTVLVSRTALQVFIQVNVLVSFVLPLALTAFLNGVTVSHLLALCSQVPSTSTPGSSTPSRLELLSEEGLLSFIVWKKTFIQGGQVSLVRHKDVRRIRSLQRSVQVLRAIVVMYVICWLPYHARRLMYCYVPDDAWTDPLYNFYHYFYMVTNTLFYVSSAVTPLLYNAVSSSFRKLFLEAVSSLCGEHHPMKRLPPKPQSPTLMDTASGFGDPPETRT

T1 sequence (Q8TDS7 whole entry, species assumed): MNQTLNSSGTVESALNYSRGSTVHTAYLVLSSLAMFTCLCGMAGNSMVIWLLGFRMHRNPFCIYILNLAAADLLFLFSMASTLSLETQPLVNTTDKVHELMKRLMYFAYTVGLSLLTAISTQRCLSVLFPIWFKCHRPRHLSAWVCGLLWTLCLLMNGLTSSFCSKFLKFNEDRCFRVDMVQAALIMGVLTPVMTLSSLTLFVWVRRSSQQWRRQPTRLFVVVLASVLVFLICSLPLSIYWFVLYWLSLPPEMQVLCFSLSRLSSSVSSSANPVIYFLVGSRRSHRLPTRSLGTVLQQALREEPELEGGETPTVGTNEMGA

Q: With `NCCC(=O)O` [Beta-alanine, beta-alanine] as the compound, how does the “forskolin-stimulated cAMP production” value [1] read?
A: Its value is “decreases forskolin-stimulated cAMP production”.

Q: And the “Ca(2+) influx” value [2]?
A: Its value is “specifically evoked Ca(2+) influx”.

Q: With `CCN(CC)CCCC(C)Nc1ccnc2cc(Cl)ccc12` (stereo not shown) [chloroquine] as the compound, how does the receptor activation [3] read?
A: Its receptor activation is “Activated”.

Q: For `C[C@@H]1CN([C@H]2CC[C@](C#N)(c3ccc(F)cc3)CC2)CC[C@]1(C(=O)O)c1ccccc1` [levocabastine], which “affinity for the receptor” value [4] is on record?
A: Its value is “high affinity”.
